We go through 29 compounds from patent US11999676B2, “Vesicular monoamine transporter-2 ligands and their use in the treatment of psychostimulant abuse” (priority 2016, dated 2024).

Usually Ki stands for the equilibrium dissociation constant of an inhibitor or competing ligand from its target. As usually defined, the CLint scaled is the capacity of the preparation to metabolise the compound, expressed as a volume cleared per time. In general, half-life refers to the time needed for the level to fall by half in the phase considered. The low end stands for fast loss, the high end for slow loss.

Where two headings read alike, the source gives them in different places.

In one data set the target is VMAT2 (Rattus norvegicus (Rat), UniProt Q01827). Nature of the data set: [3H]Dopamine ([3H]DA) uptake assay, vesicular preparation. It is filed as biochemical.
A short description of data set [1]: Microsomal stability assay, rat liver microsomes. Particulars: for CLint scaled at 0.08 µM / half-life at 0.08 µM: female, Sprague-Dawley, rat, liver microsomes; for CLint scaled at 0.08 µM: pH 7.4, Microsomal stability assays: Clearance; for half-life at 0.08 µM: pH 7.4, Microsomal stability assays: Half-life. (In general: Liver microsomes are vesicles of endoplasmic reticulum, rich in cytochrome P450 enzymes.)
Protocol: Each plate holds triplicate samples of two controls (0.4 mM) and up to 14 compounds (0.08 mM) in rat and human liver microsomes. Aliquots of each well of the plate (175 μl of each well) were transferred from the master plate into 5 assay plates. For 0-hr time point, pre-cooled (4° C.) internal standard (437.5 μL, 2 μM caffeine in methanol) was added to the first plate before the reaction starts. NADPH regenerating system solution A (6.05 ml, Fisher Scientific, #NC9255727) was combined with NADPH regenerating system solution B (1.21 ml, Fisher Scientific, #NC9016235) in potassium phosphate buffer (15.8 ml, 0.1 M, pH 7.4, 37° C.). The resulting NADPH solution (43.8 μl) was added to each well of all the 96-well assay plates and mixed with pipette briefly making the final protein and compound concentrations respectively: 0.5 mg/ml, 0.08 μM (0.4 μM for controls). Plates were sealed, and all plates except the 0-hr plate were incubated at 37° C., shaken at a speed of 60 rpm. A single assay plate was tested at each time point: 0.5 hr, 1 hr, 2 hr, and 4 hr. At each time point, 437.5 μL of pre-cooled internal standard was added each well of the plate to quench the reaction. […] 120 μl supernatant was transferred to a 96-well plate, centrifuged again and analyzed by UPLC-MS (Waters Inc., Milford, MA). The compounds and internal standard were detected by selected ion recording (SIR).
The amount of material was measured as a ratio of peak area to the internal standard and graphed. Using the slope from the initial linear portion of this curve, the degradation rate constant is calculated using equation [1].

The mark [2] stands for this setting: [3H]DA uptake, rat, read-out: VMAT2 (rat) Inhibition: Mean Ki ± Standard Deviation.
Where [3] appears, read: [3H]DA uptake (Ki) VMAT2, rat striatal synaptic vesicles.

`CC(Cc1ccc(N)cc1)NCCCc1ccncc1` (stereo not drawn) [Compound 103]: the inhibition constant Ki at VMAT2 (setting [2]) stood at 378 ± 30 nM. For `CC(Cc1ccccc1)NCCCc1ccc(S)cc1` (stereo not drawn) [Compound 217], the “Microsomal stability assays: Clearance” value in data set [1] was 170 mL/min/kg. In data set [1], `CC(Cc1ccccc1)NCCCc1ccc(O)cc1` (stereo not drawn) [Compound 224] showed a CLint scaled at 0.08 µM of over 400 mL/min/kg and a half-life at 0.08 µM of under 6 min.

Regarding `CC(Cc1ccc(F)cc1)NCCCc1ccc(-c2ccnn2C)cc1` (stereo not drawn) [Compound 167], in data set [1], the intrinsic clearance (CLint scaled) at 0.08 µM amounted to 111 mL/min/kg and the half-life at 0.08 µM is 24 min.

In data set [1], `CC(Cc1ccc(F)cc1)NCCCc1ccc(S(C)(=O)=O)cc1` (stereo not drawn) [Compound 139] gave an intrinsic clearance (CLint scaled) at 0.08 µM of under 7 mL/min/kg and a half-life at 0.08 µM of over 240 min. The like results for `CC(Cc1ccc(F)cc1)NCCCn1ccnc1` (stereo not drawn) [Compound 135] were, in that order, under 7 mL/min/kg and over 240 min. On the same counts, the results for `CC(Cc1ccncc1)NCCCc1ccc(Br)cc1` (stereo not drawn) [Compound 169] are 200 mL/min/kg and 12 min.

In data set [1], `CC(Cc1ccccc1)NCCCc1ccc(Br)cc1` (stereo not drawn) [Compound 219] came in with a CLint scaled at 0.08 µM of over 400 mL/min/kg and a half-life at 0.08 µM of under 6 min.

In the case of `COc1ccc(C[C@@H](C)NCCCc2ccccc2)cc1` [Compound 27], the Ki at VMAT2 (setting [3]) amounted to 45 ± 4 nM. `CC(Cc1ccc(F)cc1)NCCCc1ccc([S+](C)[O-])cc1` (stereo not drawn) [Compound 144]: the inhibition constant (Ki) at VMAT2 (setting [2]) came out at 178 ± 78.9 nM. With `COc1ccc(C[C@H](C)NCCCc2ccccc2)cc1` [Compound 28], the inhibition constant Ki on VMAT2 (setting [3]) came to 20 ± 1 nM.

Regarding `CC(Cc1ccccc1)NCCCc1ccc(-c2cccs2)cc1` (stereo not drawn) [Compound 206], at VMAT2 (setting [2]), the Ki was found to be 125 ± 25.4 nM. On to `CS(=O)(=O)c1ccc(CCCNC(CF)Cc2ccc(F)cc2)cc1` (stereo not drawn) [Compound 137], for which the inhibitory constant (Ki) at VMAT2 (setting [2]) is 182 ± 56.7 nM.

On to `CC(C)Nc1ccc(CCCNC(C)Cc2ccc(F)cc2)cc1` (stereo not drawn) [Compound 65], for which the Ki at VMAT2 (setting [2]) is 112 ± 16.8 nM. In data set [1], `CC(Cc1ccc(F)cc1)NCCCc1ccc(NC=O)cc1` (stereo not drawn) [Compound 71] gave an intrinsic metabolic clearance (CLint scaled) at 0.08 µM of 97.2 mL/min/kg and a half-life at 0.08 µM of 30 min.

In data set [1], `CC(Cc1ccc(NC=O)cc1)NCCCc1ccccc1` (stereo not drawn) [Compound 78] gave a CLint scaled at 0.08 µM of 167 mL/min/kg and a half-life at 0.08 µM of 18 min. The like results for `CC(C)C(Cc1ccc(F)cc1)NCCCc1ccc(Br)cc1` (stereo not drawn) [Compound 141] were, in that order, over 450 mL/min/kg and under 6 min. On the same counts, the results for `CC(Cc1ccc(F)cc1)NCCCc1ccccc1` (stereo not drawn) [Compound 127] are over 400 mL/min/kg and under 6 min. `C[C@H](Cc1ccc(Br)cc1)NCCCc1ccccc1` [Compound 12]: the affinity on VMAT2 (setting [3]) corresponds to a Ki of 6 ± 1 nM. In data set [1], `CC(Cc1ccc(F)cc1)NCCCc1ccc(N(C)C)cc1` (stereo not drawn) [Compound 157] gave a CLint scaled at 0.08 µM of over 400 mL/min/kg and a half-life at 0.08 µM of under 6 min. Regarding `CC(Cc1ccc(F)cc1)NCCCc1ccc(Cl)cc1` (stereo not drawn) [Compound 189], in data set [1], the intrinsic clearance (CLint scaled) at 0.08 µM is over 400 mL/min/kg and the half-life at 0.08 µM was under 6 min. The like results for `CC(Cc1ccc([N+](=O)[O-])cc1)NCCCc1ccncc1` (stereo not drawn) [Compound 114] were, in that order, 95.9 mL/min/kg and 30 min. In data set [1], `CC(Cc1ccccc1)NCCCc1ccc(-c2cncnc2)cc1` (stereo not drawn) [Compound 203] showed an intrinsic clearance (CLint scaled) at 0.08 µM of 248 mL/min/kg and a half-life at 0.08 µM of 12 min. On VMAT2 (setting [3]), `C[C@@H](Cc1ccc(Br)cc1)NCCCc1ccccc1` [Compound 13] yielded a Ki of 32 ± 4 nM. In data set [1], `COc1ccc(CCCNC(C)Cc2ccncc2)cc1` (stereo not drawn) [Compound 173] showed a CLint scaled at 0.08 µM of 126 mL/min/kg and a half-life at 0.08 µM of 24 min.

As to `CC(Cc1ccccc1)N(CCCc1ccc(O)cc1)CCCc1ccc(O)cc1` (stereo not drawn) [Compound 225], the inhibitory constant (Ki) at VMAT2 (setting [2]) stood at 4.99 ± 1.19 nM. In data set [1], `CC(Cc1ccc(F)cc1)NCCCc1ccnc2ccccc12` (stereo not drawn) [Compound 163] came in with an intrinsic clearance (CLint scaled) at 0.08 µM of over 400 mL/min/kg and a half-life at 0.08 µM of under 6 min. For `CC(C)C(Cc1ccc(F)cc1)NCCCc1ccccc1` (stereo not drawn) [Compound 136], at VMAT2 (setting [2]), the Ki worked out at 386 ± 66.4 nM. The same measure, in the same setting: under `CC(Cc1ccc(F)cc1)NCCCc1ccc(NC2CCC2)cc1` (stereo not drawn) [Compound 93] stands 129 ± 7.41 nM.
